According to patent US7250269B2, “Composition for assaying glycoprotein” (Asahi Kasei Pharma Corporation, priority 2001, dated 2007):
Like-named read-outs stand apart in the source and are kept apart here.

Columns and labels:
Protease type-XXIV = test: Screening of globulin component-selective protease inhibitors (HSA substrate with/without γ-globulin); assay type: biochemical, Bacillus; conditions: additive concentration 1.0%; control 23.8
Source text: Using protease type-XXIV (manufactured by Sigma-Aldrich Co.) having high reactivity with the HSA substrate solution, components that decrease the protease reaction with the above globulin substrate solutions were screened based on the HSA substrate solution.
In the R-1 proteolytic reagent, as the deoxycholic acid amide, bisgluconamidopropyldeoxycholamide was used; as the cholic acid amide, 3-[(3-cholamidopropyl)dimethvlammonio]propane sulfonic acid, 3-[(3-cholamidopropyl)dimethylammonio]-2-hydroxypropane sulfonic acid, or bisgluconamidopropylcholamide was used; as the quaternary ammonium salt, benzyltriethylan chloride or benzyltri-n-butylammonium chloride was used; and as quatemary ammonium salt-type cationic surfactant, lauryltrimethylammonium chloride or lauryldimethylamine oxide was used.
• 1. HSA substrate solution: Albumin Human: 40 mg/ml, GA %=10.5% [manufactured by Wako Pure Chemical Industries, Ltd., the albumin concentration in the substrate solution was assayed using an albumin assay kit (albumin II-HA Test Wako; manufactured by Wako Pure Chemical Industries, Ltd.). GA % was assayed using a glycated albumin analyzer (GAA-2000, manufactured by ARKRAY, Inc.). • 2. γ-globulin addition substrate solution, 17.0 mg/ml of γ-globulin [γ-Globulins Human (manufactured by Sigma-Aldrich Co.), Fructosamine value=34 μM] was added to the above HSA substrate solution. <Reaction Procedure>
Absorbances at a wavelength of 546 nm were measured before and after the addition of R-2. The difference of the two measurements was regarded as the absorbance change. The same procedure was conducted using distilled water instead of the substrate to prepare a blank sample. In addition, a reaction solution without the addition of the globulin-selective protease inhibitor was used as a control.
ΔA (HSA) was calculated by subtracting the absorbance change of the blank sample from the absorbance change obtained for the HSA substrate solution. ΔA(+γ-globulin) was calculated by subtracting the absorbance change of the blank sample from the absorbance change obtained for the substrate solution to which γ-globulin was added. Effect of γ-globulin addition=(ΔA(+γ-globulin)−ΔA(HSA))/ΔA(HSA)×100(%)

R-FOD-II = test: Stabilization of enzyme reacting at least with glycated amino acid; assay type: biochemical; conditions: for stabilization effect on glycated amino acid assay reagent (relative sensitivity): without stabilizer 30%; for decrease in performance of glycated amino acid assay reagent: storage for four weeks at 37° C.; for storage stability effect: stored in a liquid state in a refrigerator
Experimental: 8 μl of a sample was added to 240 μl of the proteolytic reagent incubated at 37° C. […] A relative sensitivity for the experiment using the reagent containing a stabilizer to the experiment using the reagent not containing a stabilizer was calculated assuming that ΔA0 obtained using the reagent not containing a stabilizer and used without storing is 100%.

albumin = biological target: T1, albumin (Homo sapiens, UniProt P02768); test: Albumin assay by BCP method after pretreatment with protein denaturing agent and/or compound having S—S bond; conditions: for albumin value by BCP method, sample GA: immunological method 8.1, no pretreatment 7.9; for albumin value by BCP method, sample NGA: immunological method 37.5, no pretreatment 36.1; for albumin value by BCP method, sample Blood serum of patients: immunological method 40.5, no pretreatment 36.2
T1 construct: from tissue; host or cells: human blood serum (healthy persons, patients; albumin purified with boric acid-immobilized resin)
T1 sequence (P02768 25-609): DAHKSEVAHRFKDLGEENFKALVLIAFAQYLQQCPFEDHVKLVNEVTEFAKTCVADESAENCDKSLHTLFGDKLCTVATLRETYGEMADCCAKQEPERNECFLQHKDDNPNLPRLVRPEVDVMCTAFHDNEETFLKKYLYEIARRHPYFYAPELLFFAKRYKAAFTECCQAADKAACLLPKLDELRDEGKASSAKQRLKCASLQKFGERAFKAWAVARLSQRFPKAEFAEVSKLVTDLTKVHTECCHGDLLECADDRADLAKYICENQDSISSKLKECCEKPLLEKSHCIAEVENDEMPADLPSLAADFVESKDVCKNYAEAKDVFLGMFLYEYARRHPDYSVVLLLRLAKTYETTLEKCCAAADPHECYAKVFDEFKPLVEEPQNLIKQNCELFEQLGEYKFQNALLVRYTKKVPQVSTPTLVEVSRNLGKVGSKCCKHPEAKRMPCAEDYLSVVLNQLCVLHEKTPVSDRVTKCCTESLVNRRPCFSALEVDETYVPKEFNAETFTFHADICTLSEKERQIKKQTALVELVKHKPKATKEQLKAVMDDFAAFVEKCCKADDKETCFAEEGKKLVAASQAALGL
Experimental: The following compounds 1)-9) were used as the protein denaturing agent and/or the compound having S—S bond in the R-1 pretreatment reagent. • 1) 6,6′-dithiodinicotinic acid: 100 mM • 2) 3,3′-dithiodipropionic acid: 100 mM • 3) 2,2′-dithiodibenzoic acid: 100 mM • 4) 4,4′-dithiodimorpholine: 100 mM • 5) DTNB (50 mM) • 6) DDD (33 mM) • 7) 2-PDS (25 mM) • 8) 4-PDS (50 mM) • 9) SDS (0.3%) • 1)-5) manufactured by Wako Pure Chemical Industries, Ltd. • 6)-9) manufactured by Dojindo Laboratories <Samples>
Glycated lbumin, non-glycated albumin, blood serum of healthy persons, and blood serum of patients were used as samples, and distilled water was used as a blank. Glycated albumin and non-glycated albumin were obtained from human blood serum, albumin was purified by known method and using a boric acid-immobilized resin.
2 μl of a sample was added to 160 μl of the pretreatment reagent incubated at 37° C. […] Absorbance at 600 nm was measured before the addition of the albumin coloring reagent and five minutes after the addition of the albumin coloring reagent. A calibration curve was prepared using distilled water and a sample with a known albumin concentration instead of the sample. A sample was separately assayed by an immune method using a latex reagent (LX reagent, Alb-II, manufactured by Eiken Chemical Co., Ltd.) as a control.

[1] = stored at 37° C. for two days, FIG. 6
[2] = pretreatment reagent at concentration of b299
[3] = pretreatment reagent at concentration of b299, immunological method 43.0, no pretreatment 38.4

## CC[N+](CC)(CC)Cc1ccccc1.[Br-] [Benzyltriethylammonium bromide]
Protease type-XXIV
  Effect of γ-globulin (%): 22.9%

## NC(=O)CC[C@H](N)C(=O)O [L-glutamine, L-Glutamine]
R-FOD-II; [1]
  stabilization effect on glycated amino acid assay reagent (relative sensitivity): stabilization effect

## OC[C@H]1O[C@H](O[C@H]2O[C@H](CO)[C@@H](O)[C@H](O)[C@H]2O)[C@H](O)[C@@H](O)[C@@H]1O [trehalose, Trehalose]
R-FOD-II; [1]
  stabilization effect on glycated amino acid assay reagent (relative sensitivity): stabilization effect

## N.N.O=S(=O)(O)O [ammonium sulfate, Ammonium sulfate]
R-FOD-II; [1]
  stabilization effect on glycated amino acid assay reagent (relative sensitivity): stabilization effect

## O=C(O)CCSSCCC(=O)O [Reagent 2, 3,3′-dithiodipropionic acid]
albumin; [2]
  albumin value by BCP method, sample GA: 7.9
  albumin value by BCP method, sample NGA: 35.7
  albumin value by BCP method, sample Blood serum of patients: 37.0
albumin; [3]
  albumin value by BCP method, sample Blood serum of healthy parsons: 37.9

## [Cl-].[Cl-].[Mg+2] [magnesium chloride, Magnesium chloride]
R-FOD-II; [1]
  stabilization effect on glycated amino acid assay reagent (relative sensitivity): stabilization effect

## O=C(O)c1cc(SSc2ccc([N+](=O)[O-])c(C(=O)O)c2)ccc1[N+](=O)[O-] [Reagent 5, 5,5′-dithiobis-(2-nitrobenzoic acid)]
albumin
  effect of pretreatment on decreasing deviation from the immune method: particularly remarkable
albumin; [2]
  albumin value by BCP method, sample GA: 8.7
  albumin value by BCP method, sample NGA: 38.4
  albumin value by BCP method, sample Blood serum of patients: 35.5
albumin; [3]
  albumin value by BCP method, sample Blood serum of healthy parsons: 38.3

## Oc1ccc2cc(SSc3ccc4cc(O)ccc4c3)ccc2c1 [Reagent 6, 2,2′-dihydroxy-6,6′-dinaphthyl disulfide]
albumin
  effect of pretreatment on decreasing deviation from the immune method: particularly remarkable
albumin; [2]
  albumin value by BCP method, sample GA: 7.6
  albumin value by BCP method, sample NGA: 36.9
  albumin value by BCP method, sample Blood serum of patients: 37.7
albumin; [3]
  albumin value by BCP method, sample Blood serum of healthy parsons: 39.1

## OC[C@@H](O)[C@@H](O)[C@H](O)[C@H](O)CO [mannitol, Mannitol]
R-FOD-II; [1]
  stabilization effect on glycated amino acid assay reagent (relative sensitivity): stabilization effect

## O=C(O)c1ccc(SSc2ccc(C(=O)O)cn2)nc1 [Reagent 1, 6,6′-dithiodinicotinic acid]
albumin
  albumin value by BCP method, sample Blood serum of healthy parsons: 38.2
albumin; [2]
  albumin value by BCP method, sample GA: 7.6
  albumin value by BCP method, sample NGA: 35.6
  albumin value by BCP method, sample Blood serum of patients: 36.7

## NCCCC[C@H](N)C(=O)O [L-lysine, L-Lysine]
R-FOD-II; [1]
  stabilization effect on glycated amino acid assay reagent (relative sensitivity): stabilization effect

## N[C@@H](CCC(=O)O)C(=O)O [L-glutamic acid, L-Glutamic acid]
R-FOD-II; [1]
  stabilization effect on glycated amino acid assay reagent (relative sensitivity): stabilization effect

## C[N+](C)(C)Cc1ccccc1.[Cl-] [Benzyltrimethylammonium chloride]
Protease type-XXIV
  Effect of γ-globulin (%): 23.2%

## C[C@H](CCC(=O)O)[C@H]1CC[C@H]2[C@@H]3[C@H](O)C[C@@H]4C[C@H](O)CC[C@]4(C)[C@H]3C[C@H](O)[C@]12C [Cholic acid]
Protease type-XXIV
  Effect of γ-globulin (%): 23.0%

## CC(CCC(=O)NCCC[N+](C)(C)CC(O)CS(=O)(=O)[O-])C1CCC2C3C(O)CC4CC(O)CCC4(C)C3CC(O)C12C (stereo not shown) [3-[3-cholamidopropyl)dimethylammonio]-2-hydroxypropane sulfonic acid]
Protease type-XXIV
  Effect of γ-globulin (%): 18.0%

## C[C@H](CCC(=O)N(CCCNC(=O)[C@H](O)[C@@H](O)[C@H](O)[C@H](O)CO)CCCNC(=O)[C@H](O)[C@@H](O)[C@H](O)[C@H](O)CO)[C@H]1CC[C@H]2[C@@H]3[C@H](O)C[C@@H]4C[C@H](O)CC[C@]4(C)[C@H]3C[C@H](O)[C@]12C [N,N-Bis(3-D-gluconamidopropyl)cholamido]
Protease type-XXIV
  Effect of γ-globulin (%): 21.0%

## c1cc(SSc2ccncc2)ccn1 [Reagent 8, 4,4′-dithiopyridine]
albumin
  effect of pretreatment on decreasing deviation from the immune method: particularly remarkable
albumin; [2]
  albumin value by BCP method, sample GA: 7.5
  albumin value by BCP method, sample NGA: 36.2
  albumin value by BCP method, sample Blood serum of patients: 36.2
albumin; [3]
  albumin value by BCP method, sample Blood serum of healthy parsons: 38.8

## C[C@H](CCC(=O)NCCC[N+](C)(C)CCCS(=O)(=O)[O-])[C@H]1CC[C@H]2[C@@H]3[C@H](O)C[C@@H]4C[C@H](O)CC[C@]4(C)[C@H]3C[C@H](O)[C@]12C [3-[(3-cholamidopropyl)dimethylammonio]propane sulfonic acid]
Protease type-XXIV
  Effect of γ-globulin (%): 17.9%

## CCCC[N+](CCCC)(CCCC)Cc1ccccc1.[Cl-] [Benzyltributylammonium chloride]
Protease type-XXIV
  Effect of γ-globulin (%): 15.1%

## O=C(O)c1ccccc1SSc1ccccc1C(=O)O [Reagent 3, 2,2′-dithiodibenzoic acid]
albumin
  effect of pretreatment on decreasing deviation from the immune method: particularly remarkable
albumin; [2]
  albumin value by BCP method, sample GA: 7.7
  albumin value by BCP method, sample NGA: 38.0
  albumin value by BCP method, sample Blood serum of patients: 35.0
albumin; [3]
  albumin value by BCP method, sample Blood serum of healthy parsons: 40.1

## C[C@H](N)C(=O)O [L-alanine, L-Alanine]
R-FOD-II
  decrease in performance of glycated amino acid assay reagent: almost no decrease in performance
  storage stability effect: one or more years
R-FOD-II; [1]
  stabilization effect on glycated amino acid assay reagent (relative sensitivity): stabilization effect

## CC[N+](CC)(CC)Cc1ccccc1.[Cl-] [Benzyltriethylammonium chloride]
Protease type-XXIV
  Effect of γ-globulin (%): 16.5%

## OC[C@H]1O[C@@](CO)(O[C@H]2O[C@H](CO)[C@@H](O)[C@H](O)[C@H]2O)[C@@H](O)[C@@H]1O [sucrose, Sucrose]
R-FOD-II; [1]
  stabilization effect on glycated amino acid assay reagent (relative sensitivity): stabilization effect

## CCCCCCCCCCCCOS(=O)(=O)[O-].[Na+] [Reagent 9, sodium lauryl sulfate]
albumin
  albumin value by BCP method, sample Blood serum of healthy parsons: 43.7
  effect of pretreatment on decreasing deviation from the immune method: particularly remarkable
albumin; [2]
  albumin value by BCP method, sample GA: 7.8
  albumin value by BCP method, sample NGA: 37.4
  albumin value by BCP method, sample Blood serum of patients: 40.7

## C[N+](C)(C)Cc1ccccc1.[Br-] [Benzyltrimethylammonium bromide]
Protease type-XXIV
  Effect of γ-globulin (%): 23.1%

## CNCC(=O)O [sarcosine, Sarcosine]
R-FOD-II
  decrease in performance of glycated amino acid assay reagent: almost no decrease in performance
  storage stability effect: one or more years
R-FOD-II; [1]
  strength of stabilization effect: particularly strong stabilization effect
  stabilization effect on glycated amino acid assay reagent (relative sensitivity): stabilization effect

## CC(C)[C@H](N)C(=O)O [L-valine, L-Valine]
R-FOD-II; [1]
  stabilization effect on glycated amino acid assay reagent (relative sensitivity): stabilization effect

## C1CN(SSN2CCOCC2)CCO1 [Reagent 4, 4,4′-dithiodimorpholine]
albumin
  effect of pretreatment on decreasing deviation from the immune method: particularly remarkable
albumin; [2]
  albumin value by BCP method, sample GA: 7.7
  albumin value by BCP method, sample NGA: 39.5
  albumin value by BCP method, sample Blood serum of patients: 31.3
albumin; [3]
  albumin value by BCP method, sample Blood serum of healthy parsons: 41.3

## O=C(O)[C@@H]1CCCN1 [L-proline, L-Proline]
R-FOD-II; [1]
  stabilization effect on glycated amino acid assay reagent (relative sensitivity): stabilization effect

## c1ccc(SSc2ccccn2)nc1 [Reagent 7, 2,2′-dithiopyridine]
albumin
  effect of pretreatment on decreasing deviation from the immune method: particularly remarkable
albumin; [2]
  albumin value by BCP method, sample GA: 7.8
  albumin value by BCP method, sample NGA: 36.8
  albumin value by BCP method, sample Blood serum of patients: 36.8
albumin; [3]
  albumin value by BCP method, sample Blood serum of healthy parsons: 38.9

## OC[C@@H](O)[C@@H](O)[C@H](O)[C@@H](O)CO [sorbitol, Sorbitol]
R-FOD-II; [1]
  stabilization effect on glycated amino acid assay reagent (relative sensitivity): stabilization effect
